Holding throughout (format): functional
For assay [1], the system named is Mythimna separata. The experiment in a line: Larvicidal activity against Oriental armyworm at 5 mg/L.
Assay [2] concerns Aedes aegypti. The experiment in a line: Larvicidal activity against mosquito larvae at 0.25 mg/L.
Assay [3] relates to Aedes aegypti. The experiment in a line: Larvicidal activity against mosquito larvae at 0.5 mg/L.
Assay [4] has as its system Mythimna separata. The experiment in a line: Larvicidal activity against Oriental armyworm at 50 mg/L.
The test system of assay [5] is Mythimna separata. The experiment in a line: Larvicidal activity against Oriental armyworm at 100 mg/L.
The subject of assay [6] is Mythimna separata. The experiment in a line: Larvicidal activity against Oriental armyworm at 25 mg/L.
The test system of assay [7] is Mythimna separata. The experiment in a line: Larvicidal activity against Oriental armyworm at 200 mg/L.
In assay [8] the test system is Mythimna separata. The experiment in a line: Larvicidal activity against Oriental armyworm at 10 mg/L.
The subject of assay [9] is Mythimna separata. The experiment in a line: Larvicidal activity against Oriental armyworm at 2.5 mg/L.
The subject of assay [10] is Mythimna separata. The experiment in a line: Larvicidal activity against Oriental armyworm at 0.5 mg/L.
Assay [11] relates to Aedes aegypti. The experiment in a line: Larvicidal activity against mosquito larvae at 0.025 mg/L.
The test system of assay [12] is Aedes aegypti. The experiment in a line: Larvicidal activity against mosquito larvae at 0.1 mg/L.
The test system of assay [13] is Aedes aegypti. The experiment in a line: Larvicidal activity against mosquito larvae at 0.05 mg/L.
Assay [14] has as its system Mythimna separata. The experiment in a line: Larvicidal activity against Oriental armyworm at 1 mg/L.
The test system of assay [15] is Aedes aegypti. The experiment in a line: Larvicidal activity against mosquito larvae at 1 mg/L.
Assay [16] relates to Aedes aegypti. The experiment in a line: Larvicidal activity against mosquito larvae at 2 mg/L.
Assay [17] relates to Aedes aegypti. The experiment in a line: Larvicidal activity against mosquito larvae at 0.01 mg/L.
In assay [18] the test system is Aedes aegypti. The experiment in a line: Larvicidal activity against mosquito larvae at 0.005 mg/L.
For assay [19], the system named is Aedes aegypti. The experiment in a line: Larvicidal activity against mosquito larvae at 0.0025 mg/L.
Assay [20] relates to Spodoptera exigua. The experiment in a line: Larvicidal activity against beet armyworm.
Assay [21] deals with Mythimna separata. The experiment in a line: Larvicidal activity against Oriental armyworm at 0.125 mg/L.
For assay [22], the system named is Ostrinia nubilalis. The experiment in a line: Larvicidal activity against corn Borer.
For assay [23], the system named is Aedes aegypti. The experiment in a line: Larvicidal activity against mosquito larvae at 0.0001 mg/L.
Assay [24] has as its system Plutella xylostella. The experiment in a line: Larvicidal activity against diamondback moth.
For assay [25], the system named is Mythimna separata. The experiment in a line: Larvicidal activity against Oriental armyworm at 0.25 mg/L.
The test system of assay [26] is Aedes aegypti. The experiment in a line: Larvicidal activity against mosquito larvae at 0.001 mg/L.
Assay [27] has as its system Aedes aegypti. The experiment in a line: Larvicidal activity against mosquito larvae at 0.00025 mg/L.

Converted amounts (≈) assume the structure as drawn.

Regarding `Cc1cccc(O/N=C/c2ccc(NC(=O)NC(=O)c3c(F)cccc3F)cc2)c1`, the Activity in [1] is given as 0%; in assay [2], 60%; in assay [3], 90%; in [4], 50%; in assay [5], 90%; in [6], 30%. Moreover, the Activity in assay [7] turned out to be 100%; in [8], 10%.

With `C/C(=N\OC(C)C)c1ccc(NC(=O)NC(=O)c2c(F)cccc2F)cc1`, the Activity in assay [9] stood at 65%; in assay [10], 0%; in [1], 100%; in [2], 100%; in assay [11] it was 30%; in assay [12], 90%. Besides, the Activity in [3] is 100%; in assay [13] it was 90%; in [8] it was 100%; in assay [14], 10%.

For the molecule `C/C(=N\OCc1ccccc1)c1ccc(NC(=O)NC(=O)c2c(F)cccc2F)cc1`, the Activity in assay [15] is reported as 0%; in [4] it was 90%; in assay [6], 80%; in [8], 10%; in [16], 0%.

Consider `CC(C)O/N=C(\C#N)c1ccc(NC(=O)NC(=O)c2c(F)cccc2F)cc1`, for which the Activity in assay [17] stood at 0%; in assay [9], 0%; in assay [1], 40%; in assay [2], 100%; in [11], 10%; in [12] it was 100%. In addition, the Activity turned out to be 100% in assay [4], 50% in assay [13] and 80% in [8].

Turning to `N#C/C(=N\OCc1ccccc1)c1ccc(NC(=O)NC(=O)c2c(F)cccc2F)cc1`, the Activity came out at 100% in [2]; 90% in [12]; 100% in assay [3]; 0% in assay [7]; 0% in assay [13].

As to `CC(C)O/N=C/c1ccc(NC(=O)NC(=O)c2c(F)cccc2F)c(Cl)c1`, the Activity in assay [17] was 100%; in assay [9] it was 90%; in [10], 0%; in assay [1] it was 100%; in assay [3], 100%; in [18], 30%. The Activity in assay [14] is on record as 10%.

As for `CC(C)O/N=C/c1ccc(NC(=O)NC(=O)c2c(F)cccc2F)c(F)c1`, the Activity in assay [19] was 50%; in [17] it was 100%; in assay [9], 100%; in assay [10] it was 90%; in assay [21], 0%; in assay [18], 100%. The Activity in assay [23] turned out to be 10%; in assay [25], 10%; in [26], 20%; in assay [14], 100%. Besides, the LC50 in assay [20] was found to be 4.32 µg/mL (≈ 11.4 µM); in assay [22] it was 7.59 µg/mL (≈ 20 µM); in assay [24], 2.75 µg/mL (≈ 7.25 µM).

On to `CC(C)O/N=C/c1ccc(NC(=O)NC(=O)c2c(F)cccc2F)cc1Cl`, for which the Activity in assay [19] is 30%; in assay [17], 100%; in assay [9], 90%; in [10] it was 0%; in [1], 100%; in [18], 100%. Moreover, the Activity in assay [26] and in assay [14] was 10% throughout.

As for `CC(=O)O/N=C/c1ccc(NC(=O)NC(=O)c2c(F)cccc2F)cc1`, the Activity was 0% in assay [2]; 100% in assay [15]; 20% in assay [3]; 20% in assay [4]; 50% in assay [5]; 10% in assay [6]. The Activity in assay [7] is recorded as 100%; in assay [8] it was 0%; in [16], 100%.

`O=C(NC(=O)c1c(F)cccc1F)Nc1ccc(/C=N/OC(=O)c2ccccc2)cc1`: the Activity was 0% in assay [9]; 40% in [1]; 80% in [2]; 100% in [15]; 30% in assay [12]; 100% in [3]. In addition, the Activity in assay [6] is recorded as 90%; in [8] it was 80%.

As for `Cc1cc(C)cc(C(=O)O/N=C/c2ccc(NC(=O)NC(=O)c3c(F)cccc3F)cc2)c1`, the Activity is on record as 0% in assay [9]; 90% in assay [1]; 100% in assay [2]; 10% in assay [11]; 90% in assay [12]; 100% in [3]. Further, the Activity was determined as 100% in [6], 90% in assay [13] and 100% in assay [8].

`CC(C)C(=O)O/N=C/c1ccc(NC(=O)NC(=O)c2c(F)cccc2F)cc1`: the Activity in assay [9] is 20%; in assay [10], 0%; in [1] it was 100%; in [2], 100%; in assay [11], 0%; in [12], 70%. Also, the Activity in assay [3] is reported as 100%; in [13], 10%; in assay [8], 100%; in [14], 10%.

For the molecule `O=C(NC(=O)c1c(F)cccc1F)Nc1ccc(/C=N/Oc2ccc(Cl)cc2)cc1`, the Activity in assay [19] stood at 100%; in [9] it was 80%; in assay [1], 100%; in assay [27], 20%; in assay [26] it was 100%; in assay [8], 100%. Besides, in assay [14], the Activity is 0%.

As for `O=C(NC(=O)c1c(F)cccc1F)Nc1ccc(/C=N/Oc2ccc(Br)cc2)cc1`, the Activity is listed as 40% in assay [19]; 100% in assay [17]; 90% in [9]; 90% in [1]; 100% in assay [18]; 90% in assay [4]. The Activity in assay [23] is on record as 90%; in assay [6] it was 100%; in assay [26], 0%; in assay [8] it was 100%; in [14], 0%.

On to `O=C(NC(=O)c1c(F)cccc1F)Nc1ccc(/C=N/Oc2ccccc2)cc1`, for which the Activity in assay [19] came to 10%; in assay [17], 100%; in assay [1] it was 0%; in assay [11], 100%; in assay [18], 20%; in assay [5], 100%. Besides, the results for the Activity in assay [6], in assay [7] and in [8] were 40%, 100% and 20%, respectively.

With `CC(C)(C)O/N=C/c1ccc(NC(=O)NC(=O)c2c(F)cccc2F)c(F)c1`, the Activity in [9] is 100%; in [10], 90%; in assay [25], 10%; in assay [14], 100%. The LC50 worked out at 3.37 µg/mL (≈ 8.57 µM) in [20], 10 µg/mL (≈ 25.5 µM) in assay [22] and 0.57 µg/mL (≈ 1.45 µM) in assay [24].

For `CC(C)(C)O/N=C/c1cccc(NC(=O)NC(=O)c2c(F)cccc2F)c1`, the Activity turned out to be 100% in assay [4], 100% in assay [5] and 90% in assay [6].

As to `CC(C)(C)O/N=C/c1ccccc1NC(=O)NC(=O)c1c(F)cccc1F`, the Activity in [7] is listed as 0%.

Regarding `CC(C)(C)O/N=C/Cc1ccc(NC(=O)NC(=O)c2c(F)cccc2F)cc1`, the Activity in [4] worked out at 100%; in assay [6], 100%; in assay [8], 80%.

Consider `CC(C)O/N=C/c1ccc(NC(=O)NC(=O)c2c(F)cccc2F)cc1`, for which the Activity in [19] was determined as 15%; in assay [9] it was 100%; in assay [10], 50%; in assay [18] it was 75%; in assay [25], 0%; in assay [26], 0%. In addition, the Activity in assay [14] amounted to 100%.

Turning to `O=C(NC(=O)c1c(F)cccc1F)Nc1ccc(CO/N=C(/c2ccc(Cl)cc2)C2CC2)cc1` [FLUCYCLOXURON], the Activity in assay [17] is recorded as 0%; in assay [9] it was 50%; in [10] it was 0%; in assay [1], 90%; in assay [11] it was 15%; in assay [12] it was 100%. Also, the Activity is given as 100% in [13], 95% in [8] and 10% in assay [14]. For the same molecule, the figures for the LC50 in assay [20], in assay [22] and in assay [24] were 102 µg/mL (≈ 210 µM), 9.25 µg/mL (≈ 19.1 µM) and 72.9 µg/mL (≈ 151 µM), respectively.

(Values after ChEMBL document CHEMBL1208750, “Synthesis, larvicidal activity, and SAR studies of new benzoylphenylureas containing oxime ether and oxime ester group” (2010).)
